Entries after “also recorded” stand apart in the source; their conditions may differ.
How the values were obtained:
Assay type in all cases: cell-based
[1] = system: 308 cells (benign neoplastic mouse keratinocytes); experiment: Cornified envelope (cross-linked protein) assay, 308 cells; settings: 308 (papilloma), 48 h, 0.1-1 mM
Source text: (§1) FIG. 1. MC Increases Cross-linked Protein in Epidermal Cell Lines. Black squares represent HPV 18 human epithelial keratinocytes; black circles represent SV 40 infected human keratinocytes; black triangles represent (SQCC-Y1) cells; white triangles represent (SP-1) benign tumor mouse keratinocytes; white squares represent (308 cells) benign mouse keratinocytes; and white circles represent (I-7) cells mouse squamous cell carcinoma.
(§2) Primary mouse keratinocytes were isolated from BALB/c newborn mouse skin. Primary keratinocytes, the benign neoplastic keratinocyte cell lines 308 and SP-1 (Strickland et al, Cancer Res., 48, 165-169, 1988) and the mouse squamous cell carcinoma line 1-7 (Greenhalgh et al., Proc. Natl. Acad. Sci., 87, 643-647, 1990) were grown in Eagle's minimal essential medium with 8% fetal calf serum (FCS) (chelexed) and penicillin 20 iu/ml, streptomycin 20 ug/ml (P/S). Unless otherwise indicated, the Ca^2+ concentration in medium was adjusted to 0.05 mM (Hennings et al., Cells, 19, 245-254, 1980). […]
(§3) Cells were incubated with MC for 48 hours, then cross-linked protein was isolated and measured as described in Example 1.
(§4) The assay measures insoluble cross-linked protein envelopes as described (Hough-Monroe et al. Analytical biochem., 199, 25-28, 1991), with modifications as follows. […] Absorbance of eluate was measured on a Titertek plate reader at 600 nm.

[2] = system: SV 40 infected human keratinocytes; experiment: Cornified envelope (cross-linked protein) assay, SV 40 infected keratinocytes; settings: 48 h, 0.1-1 mM
Source text: as §1, §2, §3, §4

[3] = system: primary mouse keratinocytes; experiment: Growth inhibition (cell count), primary mouse keratinocytes; settings: Keratinocyte, 72 h, 25 μM MC, 3 days, read-out: cells that continued to grow
Experimental: FIG. 4. Cross-linked Protein Production vs Growth Inhibition in Mouse Primary Keratinocytes. Cell growth is represented by black squares and cross-linked protein production by white squares. Results are ±SD (n=3) of one experiment, representative of three.
Cells were seeded at low density and were treated with MC for 3 days. Cells were then counted and increase in cell number was compared to untreated controls, or cells were processed for cross-linked protein. (FIG. 4) Protein cross-linking was rapid, commencing within 4 hours at 1 mM in mouse primary keratinocytes, (FIG. 3A) and was accompanied by cell death, as measured by the MTT assay (FIG. 3B).

transglutaminase = experiment: Transglutaminase activity in primary mouse keratinocytes
Experimental: FIG. 7. […] Black columns represent untreated cells in 1.4 mM Ca^2+ medium; and hatched columns represent cells treated with 1 mM MC. Cytosol is represented by "C" and membrane fractions are represented by "M". Results are ±SD (n=2) and were repeated in a similar experiment.
One embodiment of the present invention uses an erbstatin analog, methyl 2,5-dihydroxycinnamate, which forms cross-linked protein envelopes in normal and neoplastic epithelial cells by a mechanism independent of tyrosine kinase inhibition. Methyl 2,5-dihydroxycinnamate (MC) is a tyrosine kinase inhibitor. To assess its ability to induce epithelial cell differentiation, crosslinked protein envelopes were measured after a 48 h incubation with agent. […] To confirm differentiation, MC-treated mouse primary keratinocytes were tested for transglutaminase (TGase) activity, inhibition of protein cross-linking by the TGase inhibitor LTB-2 and HPB-2 and incorporation of the fluorescent TGase substrate dansylcadaverine into envelopes. […] This effect, in concert with growth inhibitory properties, may be useful clinically in the topical treatment of warts or superficial neoplasias of the skin.
Mouse primary keratinocytes were incubated in medium with 1.4 mM Ca^2+ for the indicated times. MC-induced cross-linking commences within 4 hours (see FIG. 3). […]

[4] = system: I-7 mouse squamous cell carcinoma cells; experiment: Cornified envelope (cross-linked protein) assay, I-7 cells; settings: I-7 (carcinoma), 48 h, 0.1-1 mM
Source text: as §1, §2, §3, §4

[5] = system: SP-1 benign tumor mouse keratinocytes; experiment: Cornified envelope (cross-linked protein) assay, SP-1 cells
Source text: as §1
FIGS. 2A and 2B, 2C and 2D show color phase contrast photographs. SP-1 cells were treated with vehicle (A and C) or 250 μM MC (B and D) for 48 hours. In A and B phase contrast photomicrographs were taken.
Primary mouse keratinocytes were isolated from BALB/c newborn mouse skin. […]
as §3, §4

[6] = system: primary mouse keratinocytes; experiment: Cornified envelope (cross-linked protein) assay, primary mouse keratinocytes
Experimental: FIGS. 3A and 3B. A: Time course for cornification of primary mouse keratinocytes in response to MC. Boxes represent […] Ca^2+, triangles represent 100 μM MC, 1.4 mM Ca^2+, and solid circles represent 1 mM MC, 1.4 mM Ca^2+. […] Cells were incubated in medium with 1.4 mM Ca^2+ and MC for 4 hours, then were incubated with MTT (0.5 mg/ml in medium) for a further 4 hours before determination of formazan production.
Primary mouse keratinocytes were isolated from BALB/c newborn mouse skin. Primary keratinocytes, the benign neoplastic keratinocyte cell lines 308 and SP-1 (Strickland et al, Cancer Res., 48, 165-169, 1988) and the mouse squamous cell carcinoma line 1-7 (Greenhalgh et al., Proc. Natl. Acad. Sci., 87, 643-647, 1990) were grown in Eagle's minimal essential medium with 8% fetal calf serum (FCS) (chelexed) and penicillin 20 iu/ml, streptomycin 20 ug/ml (P/S). Unless otherwise indicated, the Ca^2+ concentration in medium was adjusted to 0.05 mM (Hennings et al., Cells, 19, 245-254, 1980). A431 human epidermoid carcinoma cells were obtained from ATCC, Rockville, Md., and were routinely passaged in DMEM with 10% FCS, P/S, glutamine (2 mM) and pyruvate (1 mM). SQCC-Y1 human squamous carcinoma cells and non-tumorigenic HPV 18 and SV 40 infected human keratinocytes were kindly donated by Dr. James Rheinwald of Harvard University, Boston, Mass. and Dr. Richard Schlegel of Georgetown University, Washington D.C. respectively. Human cells were cultured in DMEM/Ham's F12 1:1, 10% FCS, P/S and epidermal growth factor 10 ng/ml.
Primary mouse keratinocytes were incubated with MC for 0, 0.5, 1, 4 and 48 hours and were processed as follows.
The assay measures insoluble cross-linked protein envelopes as described (Hough-Monroe et al. Analytical biochem., 199, 25-28, 1991), with modifications as follows. Cornified envelopes were prepared by scraping monolayers into 2% sodium dodecylsulphate (SDS), 20 mM dithiothreitol (DTT) in phosphate buffered saline (PBS). Unattached cells were pelleted from medium and were resuspended in SDS/DTT and pooled with attached cells. Samples were boiled for 10 mins. Cornified envelope samples were examined under the microscope using phase contrast optics or were applied to an RC60 membrane (Schleicher and Schuell, Keene, N.H.) on a 96-well dot-blot apparatus attached to a vacuum. Samples were washed three times with SDS/DTT and the resultant protein spots on RC60 membrane were fixed and stained as described. Sports were excised and eluted with 1% NH3 OH concentrated solution, 66% methanol (200 ul) overnight. Absorbance of eluate was measured on a Titertek plate reader at 600 nm.
Cells were seeded at low density and were treated with MC for 3 days. Cells were then counted and increase in cell number was compared to untreated controls, or cells were processed for cross-linked protein.
Inhibitors were added 30 mins before MC or stsp (FIG. 6). Cross-linked protein was measured by the cornified envelope assay, described in Example 2.

SMILES: COC(=O)C=Cc1cc(O)ccc1O [MC, methyl 2,5-dihydroxycinnamate]
- cross-linked protein (envelope production) [1]: induced crosslinked envelope production; also recorded: increased cross-linked protein in a dose-dependent manner
- cross-linked protein (envelope production) [2]: induced crosslinked envelope production; also recorded: increased cross-linked protein in a dose-dependent manner
- activity at 25 µM [3]: 20%
- transglutaminase activity (transglutaminase; 1 mM MC, 4 hrs, cytosol and membrane fractions): not stimulated; also recorded: does not Increase Transglutaminase Activity
- involvement of transglutaminase in the mode of action (transglutaminase; TGase activity, TGase inhibitors LTB-2 and HPB-2, dansylcadaverine incorporation): refuted the involvement of TGase
- cross-linked protein (envelope production) [4]: induced crosslinked envelope production; also recorded: increased cross-linked protein in a dose-dependent manner
- formation of cross-linked cornified envelopes (phase contrast) ([5]; SP-1, 250 μM, 48 hours): formation of cross-linked cornified envelopes
- cross-linked protein (envelope production) ([5]; SP-1, 48 h, 0.1-1 mM): induced crosslinked envelope production; also recorded: increased cross-linked protein in a dose-dependent manner
- cornification after 48 hours ([6]; 100 μM, 48 hours): effective
- cornification after 48 hours ([6]; 1 mM, 48 hours): effective
- time within which cornification / cross-linking occurs or commences ([6]; 1 mM, primary mouse keratinocytes): ≤ 4 h
- cross-linked protein at 4° C. and 37° C. ([6]; 4° C. and 37° C., 48 hours): took place at 4 °C and 37 °C; also recorded: Induces Cross-linked protein; also recorded: able to induce cross-linked protein effectively at 4° or 37 °C
- minimal effective concentration ([6]; Keratinocyte, 72 h, primary mouse keratinocytes, 3 days, read-out: concentration required to produce protein cross-linking): > 50 µM
- effect of transglutaminase inhibitors on cross-linking activity ([6]; LTB 2 and HPB 2 at 100 μM, MC 75 or 1000 μM or staurosporine 10 nM, 48 hours): not affected by transglutaminase inhibitors; also recorded: not inhibited by transglutaminase (TGase) inhibitors; also recorded: do not Prevent Protein Cross-linking
- cross-linked protein (envelope production) ([6]; primary mouse keratinocytes, 48 h, 0.1-1 mM): induced crosslinked envelope production; also recorded: increased cross-linked protein in a dose-dependent manner

Source: patent US5610185A, “Method for the treatment of hyperproliferative epithelial skin diseases by topical application of hydroxylated aromatic protein cross-linking compounds” (The United States of America as represented by the …, priority 1995, dated 1997)
